Drawing on article PMC7099204, “Geranylated Coumarins From Thai Medicinal Plant Mammea siamensis With Testosterone 5α-Reductase Inhibitory Activity” (Frontiers in Chemistry, 2020), this text covers inhibition for 29 compounds.

Like-named read-outs stand apart in the source and are kept apart here.

In this assay the target is T1, testosterone 5α-reductase (Rattus norvegicus, UniProt P24008).
T1 sequence (P24008 1-259): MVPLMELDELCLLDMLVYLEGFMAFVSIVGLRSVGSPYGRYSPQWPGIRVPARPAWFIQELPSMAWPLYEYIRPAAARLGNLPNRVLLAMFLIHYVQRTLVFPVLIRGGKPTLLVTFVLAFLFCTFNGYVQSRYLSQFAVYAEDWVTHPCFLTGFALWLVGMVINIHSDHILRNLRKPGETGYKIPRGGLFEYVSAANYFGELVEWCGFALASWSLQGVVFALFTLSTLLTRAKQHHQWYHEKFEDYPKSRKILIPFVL
The assay can be described thus: Assay for testosterone 5α-reductase inhibitory activity (rat liver S9 fractions, HPLC of remaining testosterone). The format is biochemical. As for the experimental part:
The experiment was performed in accordance with previously reported methods (Matsuda et al., [2001]; Lee et al., [2012]; Koseki et al., [2015]) with slight modifications. In brief, the assay was performed in 48-well microplates (Sumitomo Bakelite Co., Ltd., Tokyo, Japan). The reaction solution was pre-incubated with or without a test sample (5 μL/well, dissolved in DMSO), in a potassium phosphate buffer (40 mM, pH 6.5, 490 μL/well) containing substrate (0.35 nmol of testosterone, Tokyo Chemical Industry Co., Ltd., Tokyo, Japan) and NADPH (10 nmol, Oriental Yeast Co., Ltd., Tokyo, Japan) at room temperature (25°C) for 20 min. The enzymatic reaction was initiated by the addition of rat liver S9 fractions (10 μL/well, dissolved in the phosphate buffer, 20.6 μg/well, Oriental Yeast Co., Ltd., Tokyo, Japan, lot no. 109031513) at 37°C for 30 min. After incubation, the reaction mixture was immediately heated in boiling water for 2 min to stop the reaction. Then the reaction solution of each well was transferred to a microtube and extracted with 500 μL of EtOAc. After the microtube was centrifuged (10,000 rpm, 5 min), an aliquot of each EtOAc phase (300 μL) was transferred into another tube. The solvent in the tube was evaporated and the residue was dissolved in 30 μL of acetonitrile containing an internal standard (I.S.) fludrocortisone acetate (20 μg/mL, Sigma-Aldrich, Co., LLC, St. Louis, USA). […] The 5α-reductase inhibitory activity was determined from the following equation using the peak area ratios (r = testosterone/I.S.). Experiments were performed in triplicate or quadruple, and IC50 values were determined graphically. The 5α-reductase inhibitor finasteride (Tokyo Chemical Industry Co., Ltd., Tokyo, Japan) was used as a reference compound.
Inhibition(%)=[r(T)-r(C)/r(B)-r(C)]× 100
Control (C): enzyme (+), test sample (–); Test (T): enzyme (+), test sample (+); Blank (B): enzyme (–), test sample (+).

The mark [1] stands for this setting: 100 μM, mean ± S.E.M. (N = 3–4), read-out: Inhibition (%).
[2] abbreviates: 3 μM, mean ± S.E.M. (N = 3–4), read-out: Inhibition (%).
Where [3] appears, read: 10 μM, mean ± S.E.M. (N = 3–4), read-out: Inhibition (%).
Setting [4] is: 30 μM, mean ± S.E.M. (N = 3–4), read-out: Inhibition (%).

What is called inhibition is the change of the read-out against control, counted positive when it falls.

Regarding `CCCC(=O)c1c(O)c2c(c3c([C@@H](O)CC)cc(=O)oc13)OC(C)(CCC=C(C)C)C=C2` (some centres unmarked) [Compound 1, kayeassamin I], under setting [1], the inhibition at 100 µM was 37.5 ± 11.1%.
As for `CC[C@H](O)c1cc(=O)oc2c(C(=O)CC(C)C)c(O)c3c(c12)OC(C)(CCC=C(C)C)C=C3` (some centres unmarked) [Compound 2, Mammeasin E], under setting [2], the inhibition at 3 µM came out at 20 ± 9.2%. Also, the inhibition at 10 µM under setting [3] was found to be 30.9 ± 9.3%. Further, the inhibition at 30 µM under setting [4] was determined as 53.9 ± 12.7%. For the same compound, the inhibition at 100 µM under setting [1] turned out to be 89.5 ± 15.8%.
As to `CCC(C)C(=O)c1c(O)c2c(c3c([C@@H](O)CC)cc(=O)oc13)OC(C)(CCC=C(C)C)C=C2` (some centres unmarked) [Compound 3, Mammeasin F], the inhibition at 100 µM under setting [1] came to 14.9 ± 5.4%.
Regarding `CCCC(=O)c1c(O)c(C/C=C(\C)CCC=C(C)C)c(O)c2c([C@H](CC)OC(C)=O)cc(=O)oc12` [Compound 4, Mammeasin A], the inhibition at 3 µM under setting [2] is 12.6 ± 10.5%. The inhibition at 10 µM under setting [3] is 40.8 ± 12.8%. Further, under setting [4], the inhibition at 30 µM was determined as 53.1 ± 5.2%. Also, the inhibition at 100 µM under setting [1] came out at 129 ± 20.9%.
The matching figures for `CC[C@H](OC(C)=O)c1cc(=O)oc2c(C(=O)CC(C)C)c(O)c(C/C=C(\C)CCC=C(C)C)c(O)c12` [Compound 5, Mammeasin B]: 35.3 ± 6.1%, 39.9 ± 4.2%, 58.8 ± 9.6% and 83.7 ± 4.3%.
For `CC(C)=CCC/C(C)=C/Cc1c(O)c(C(=O)C(C)C)c2oc(=O)cc3c2c1OC(C)C3` (centres unmarked) [Compound 6, Mammeasin C] the same measures were 3.4 ± 13.1%, 8.8 ± 10%, 17.9 ± 10.6% and 52.9 ± 22.5%.
Turning to `CCCC(=O)c1c(O)c(C/C=C(\C)CCC=C(C)C)c2c3c(cc(=O)oc13)CC(C)O2` (centres unmarked) [Compound 7, Mammeasin D], the inhibition at 100 µM under setting [1] was 16.4 ± 5.8%.
On the same count and under the same terms, for `CCCC(=O)c1c(O)c(C/C=C(\C)CCC=C(C)C)c(O)c2c([C@@H](O)CC)cc(=O)oc12` [Compound 8, kayeassamin A] the value was 20.2 ± 7.9%.
For `CCCC(=O)c1c(O)c(CC=C(C)C)c2oc(=O)cc([C@@H](O)CC)c2c1O` [Compound 9, Kayeassamin E], the inhibition at 3 µM under setting [2] came to 2.6 ± 7.1%. Further, under setting [3], the inhibition at 10 µM amounted to 11.5 ± 12.7%. Also, the inhibition at 30 µM under setting [4] was 51.1 ± 12.4%. The inhibition at 100 µM under setting [1] was 79.9 ± 12.7%.
The matching figures for `CCC(C)C(=O)c1c(O)c(CC=C(C)C)c2oc(=O)cc([C@@H](O)CC)c2c1O` (some centres unmarked) [Compound 10, Kayeassamin F]: 4.6 ± 1.1%, 41 ± 6.4%, 68.6 ± 3.9% and 94.6 ± 1.3%.
The matching figures for `CC[C@H](O)c1cc(=O)oc2c(CC=C(C)C)c(O)c(C(=O)CC(C)C)c(O)c12` [Compound 11, Kayeassamin G]: 14.4 ± 9.7%, 37.5 ± 6.9%, 61.3 ± 3% and 62.3 ± 3.2%.
`CCC(C)C(=O)c1c(O)c(C/C=C(\C)CCC=C(C)C)c(O)c2c([C@H](CC)OC(C)=O)cc(=O)oc12` (some centres unmarked) [Compound 12, surangin B]: the inhibition at 100 µM under setting [1] was found to be 38.5 ± 5%.
`CCC(C)C(=O)c1c(O)c(C/C=C(\C)CCC=C(C)C)c(O)c2c([C@@H](O)CC)cc(=O)oc12` (some centres unmarked) [Compound 13, surangin C]: the inhibition at 3 µM under setting [2] came out at 28.2 ± 7.7%. Also, the inhibition at 10 µM under setting [3] turned out to be 63.6 ± 8.3%. For the same compound, the inhibition at 30 µM under setting [4] stood at 114 ± 6.7%. The inhibition at 100 µM under setting [1] was 124 ± 9.6%.
Take `CC(C)=CCc1c(O)c(C(=O)CC(C)C)c(O)c2c(-c3ccccc3)cc(=O)oc12` [Compound 17, Mammea A/AA]: the inhibition at 3 µM came out at 18.9 ± 7%, the inhibition at 10 µM was determined as 32 ± 3.9%, the inhibition at 30 µM was 62 ± 2.8% and the inhibition at 100 µM was determined as 92.9 ± 5.3%.
In the case of `CCC(C)C(=O)c1c(O)c(CC=C(C)C)c2oc(=O)cc(-c3ccccc3)c2c1O` (centres unmarked) [Compound 18, mammea A/AB], under setting [1], the inhibition at 100 µM was 23.3 ± 7.2%.
Same read-out and setting: for `CCCC(=O)c1c(O)c(CC=C(C)C)c2oc(=O)cc(-c3ccccc3)c2c1O` [Compound 19, Mammea A/AC] the value was 41.5 ± 11.4%; for `CC(C)=CCc1c(O)c(C(=O)C(C)C)c(O)c2c(-c3ccccc3)cc(=O)oc12` [Compound 20, Mammea A/AD], 30.3 ± 2.1%; for `CC(C)CC(=O)c1c2c(c3oc(=O)cc(-c4ccccc4)c3c1O)C=CC(C)(C)O2` [Compound 24, Mammea A/AA cyclo D], 38.3 ± 3.8%.
Regarding `CCC(C)C(=O)c1c2c(c3oc(=O)cc(-c4ccccc4)c3c1O)C=CC(C)(C)O2` (centres unmarked) [Compound 25, Mammea A/AB cyclo D], the inhibition at 100 µM under setting [1] amounted to 6.7 ± 4.5%.
`CCCC(=O)c1c2c(c3oc(=O)cc(-c4ccccc4)c3c1O)C=CC(C)(C)O2` [Compound 26, Mammea A/AC cyclo D]: the inhibition at 100 µM under setting [1] worked out at 32 ± 1.9%.
The same measure, in the same setting: for `CCCc1cc(=O)oc2c3c(c(C(=O)C(C)CC)c(O)c12)OC(C)(C)C=C3` (centres unmarked) [Compound 27, Mammea B/AB cyclo D] the value was 40.7 ± 18.1%; for `CCCC(=O)c1c2c(c3oc(=O)cc(CCC)c3c1O)C=CC(C)(C)O2` [Compound 28, Mammea B/AC cyclo D], 27.3 ± 2%; for `CCCC(=O)c1c(O)c2c(c3c(C(CC)OC(C)=O)cc(=O)oc13)OC(C)(C)C=C2` (centres unmarked) [Compound 29, Mammea E/BC cyclo D], 31.9 ± 3.9%.
The same measure, in the same setting: the figure for `CC[C@H](O)c1cc(=O)oc2c3c(c(C(=O)CC(C)C)c(O)c12)OC(C)(C)C=C3` [Compound 31, deacetylmammea E/AA cyclo D] is 37.1 ± 4%.
The same measure, in the same setting: the figure for `CCC(C)C(=O)c1c(O)c2c(c3c([C@@H](O)CC)cc(=O)oc13)OC(C)(C)C=C2` (some centres unmarked) [Compound 32, deacetylmammea E/BB cyclo D] is 31.9 ± 8.8%.
Consider `CCCC(=O)c1c(O)c2c(c3c([C@@H](O)CC)cc(=O)oc13)OC(C)(C)C=C2` [Compound 33, deacetylmammea E/BC cyclo D], for which the inhibition at 100 µM under setting [1] worked out at 40.8 ± 4.1%.
As to `CC(C)CC(=O)c1c2c(c3oc(=O)cc(-c4ccccc4)c3c1O)CC(C(C)(C)O)O2` (centres unmarked) [Compound 34, mammea A/AA cyclo F], under setting [2], the inhibition at 3 µM is 13.8 ± 6.7%. Also, the inhibition at 10 µM under setting [3] was 21.6 ± 10.3%. Moreover, the inhibition at 30 µM under setting [4] was found to be 62.8 ± 18.1%. Further, under setting [1], the inhibition at 100 µM worked out at 57 ± 15.7%.
For `CCCC(=O)c1c2c(c3oc(=O)cc(-c4ccccc4)c3c1O)CC(C(C)(C)O)O2` (centres unmarked) [Compound 35, mammea A/AC cyclo F] the same measures were 4.2 ± 6.1%, 18.4 ± 6.9%, 32.5 ± 6% and 54.8 ± 23.2%.
As for `CC(C)(C)NC(=O)[C@H]1CC[C@H]2[C@@H]3CC[C@H]4NC(=O)C=C[C@]4(C)[C@H]3CC[C@]12C` [Finasteride, finasteride, reference compound], the inhibition at 0.1 µM is 48.5 ± 10.9%, the inhibition at 0.3 µM is 61.8 ± 11.4%, the inhibition at 1 µM came to 76 ± 9.8% and the inhibition at 3 µM was determined as 91.3 ± 13.1%.
